Test [1] deals with rat aortic smooth muscle cells. Briefly: serum-stimulated proliferation, 3H-thymidine incorporation into DNA. The format is cell-based. The following applies: 10% fetal calf serum stimulated. As to the method: Inhibition of serum-stimulated proliferation of rat aortic smooth muscle cells is determined as follows: The antiproliferative effect of potential drug is determined by measuring the incorporation of ^3 H-thymidine into cellular DNA. Exposure of quiescent vascular smooth muscle cell to serum, which contains many growth factors, results in a large increase in cellular proliferation as measured by ^3 H-thymidine incorported into DNA. The inhibitory effect of potential drug on serum-stimulated proliferation is tested by adding a drug before the addition of serum and determining if the serum-stimulated proliferation is reduced. […] In that event, antagonizing of the antiproliferative effect of idazoxan is determined by adding antagonist before the addition of idazoxan to serum-stimulated vascular smooth muscle cells.
In this experiment, the proliferation of vascular smooth muscle cells was determined by measuring DNA replication. The incorporation of ^3 H-thymidine into DNA was used to measure the replication of DNA as described in Erlinge, D., et al, Am. J. Physiol. 265, H1089-H1097 (1993) which is incorporated herein by reference.
Rat aortic smooth muscle cells prepared as described in In Vitro Example 1 were plated into 24-well plates at a density of about 30,000 cells/well in 10% fetal calf serum (FCS). After 48 hours, the cells were starved in 0.5% FCS for another 48 hours to decrease proliferation and induce quiescence. The medium was replaced by serum-free medium 24 hours prior to addition of drug (drugs are described below) and 10% fetal calf serum or only 10% fetal calf serum in the case of the control. The cells were then incubated for 24 hours and ^3 H-thymidine (1 μCi/well) was added at hour 20. At the end of the 24 hour period, the medium was aspirated and the cells were washed three times with phosphate-buffered saline and twice with ice-cold trichloroacetic acid. Fixed cells were then solubilized in 0.2M NaOH and sonicated. A 100 μl aliquot was used for scintillation counting.
On the technique in general: Uptake of a labelled nucleoside into DNA is a usual measure of proliferation.

In another test the test system is rat carotid artery. Briefly: balloon angioplasty of rat left common carotid artery. The test is classed as in vivo. The following applies: 10 mg/kg/24hr for 7 days, s.c. minipump. As to the method:
To determine the actions of idazoxan in inhibiting the proliferation of vascular smooth muscle cells in vivo, we tested the effect of balloon angioplasty in rat carotid artery. Left common carotid artery balloon angioplasty was performed as described by Ohlstein et al, Proc. Natl. Acad. Sci. 90, 6189-6193 (1993). Rats were implanted, subcutaneously, with Alzet minipumps (1 μl/hr delivery rate) containing idazoxan to deliver a dose of 10 mg/kg/24hr for 7 days. Control rats were implanted with minipumps containing sterile saline. Ballon angioplasty of left common carotid artery was performed on fourth day of idazoxan administration and animals were sacrificed 10 days after the surgery. Left and right common carotid arteries were removed, cross-sections (10 μm) were cut in a cryostat and stained with eosin and hematoxylin. Blood vessel layers were quantitated in an imaging system and the ratio of internal and external diameters were calculated.

The nature of test [2]: Example III: patient with coronary artery disease, angioplasty. The test is classed as in vivo, human. As to the method:
A person presents with the onset of chest pain on exertion. […] Ten days before angioplasty, the patient is begun on 75 or 100 mg/day of idazoxan. […] Treatment with 50 mg/day idazoxan is continued for 3 months.

Test [3] is described as follows: Example IV: patient with fibromuscular dysplasia of the renal artery, angioplasty. The format is in vivo, human.
The nature of test [4]: Example V: patient with Type I diabetes mellitus, overgrowth of retinal vessels. The test is classed as in vivo, human. The conditions noted are these: idazoxan 75 mg/day; UK 14,304 60, naphazoline 125, cirazoline 60, agmatine 900 mg/day. The text has this:
A person with Type I diabetes mellitus and maintained on insulin presents with progressive symptoms of loss of visual acuity bilaterally with evidence on opthalmascopic examination of overgrowth of retinal vessels and hemorrhages.

As to `c1ccc2c(c1)OCC(C1=NCCN1)O2` (stereo not shown) [Idazoxan, 2-[2-(1,4-benzodioxanyl)]-2-imidazoline], in test [1], the “inhibition of vascular smooth muscle cell proliferation, in words” value was “potently inhibited”. Moreover, in test [1] (Rattus norvegicus, 24 h, read-out: 3H-thymidine incorporated (IC50)), the IC50 (as a rule, the point on the concentration scale where inhibition reaches its midpoint) was 4.5 ± 1.4 µM. In the test with rat carotid artery, the “internal/external diameter ratio, non-injured right common carotid artery vs control” value is “no significant difference”. For the same molecule, the “internal/external diameter ratio of lesion side as percent of control side” value in the test with rat carotid artery (10 days after surgery, saline control 21.9 ±3.3) is on record as 6.5 ±3.4%. Further, the “lesion side as percent of control side vs saline, in words” value in the test with rat carotid artery (injured left common carotid artery) is “significant decrease”. Besides, in test [2] (idazoxan 50 mg/day continued for 3 months, substitutes, dose not stated), the “symptoms / restenosis after angioplasty” value is given as “remains symptomless without evidence of restenosis”. Also, the chest pain result in test [2] (idazoxan 75 or 100 mg/day from ten days before angioplasty) is recorded as “no further chest pain”. In addition, the blood pressure entry in test [3] (idazoxan 75 mg/day for 1 month followed by angioplasty with continued treatment) was “rapid fall of blood pressure to normal”. In addition, in test [3] (idazoxan 75 mg/day, UK 14,304 60, naphazoline 125, cirazoline 60, agmatine 900 mg/day), the “re-elevation of pressure / restenosis of the renal artery” value is on record as “without evidence months later on re-elevation of pressure or on follow up, of restenosis of the renal artery”. In addition, the “progression and visual symptoms” value in test [4] was “arrest of the progression and some regression of the visual symptoms”.

(Values after patent US5574059A, “Treating disorders mediated by vascular smooth muscle cell proliferation” (priority 1995, dated 1996).)
